Test results taken from PMC12164754, “Phosphoglycerate dehydrogenase is required for kernel development and defines a predominant serine synthesis pathway in maize” (The Plant Cell, 2025).

How the values were obtained:
[1] = biological target: DEK20^WT (truncated DEK20, residues 1-387, substrate binding domain and nucleotide-binding domain) (maize (Zea mays)); experiment: crystal structure; apo form, 3.5 Å; about 16 mg/ml DEK20^WT crystallised in sodium nitrate, sodium phosphate dibasic, ammonium sulfate, HEPES/MOPS pH 7.5, glycerol, PEG 4000; solved by molecular replacement
[2] = biological target: T1, DEK20 (phosphoglycerate dehydrogenase1, PGDH1) (Zea mays, UniProt A0A1D6DW07, S282L); experiment: microscale thermophoresis (MST); format: binding
T1 construct: gene LOC103645840; recombinant His-DEK20
T1 sequence (A0A1D6DW07 entry or part of it S282L): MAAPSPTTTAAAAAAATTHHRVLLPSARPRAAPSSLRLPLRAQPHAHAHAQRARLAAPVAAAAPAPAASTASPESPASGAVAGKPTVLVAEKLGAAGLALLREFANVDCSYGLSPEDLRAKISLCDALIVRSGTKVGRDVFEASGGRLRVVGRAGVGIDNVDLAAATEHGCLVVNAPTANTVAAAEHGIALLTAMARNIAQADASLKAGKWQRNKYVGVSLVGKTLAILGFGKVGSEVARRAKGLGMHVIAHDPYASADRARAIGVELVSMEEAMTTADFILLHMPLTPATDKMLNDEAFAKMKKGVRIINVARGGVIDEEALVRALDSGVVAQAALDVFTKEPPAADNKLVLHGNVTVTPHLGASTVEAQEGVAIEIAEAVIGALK

[3] = biological target: T2, DEK20 (phosphoglycerate dehydrogenase1, PGDH1) (Zea mays, UniProt A0A1D6DW07); experiment: microscale thermophoresis (MST); format: binding
T2 construct: gene LOC103645840; recombinant His-DEK20
T2 sequence (A0A1D6DW07 1-387): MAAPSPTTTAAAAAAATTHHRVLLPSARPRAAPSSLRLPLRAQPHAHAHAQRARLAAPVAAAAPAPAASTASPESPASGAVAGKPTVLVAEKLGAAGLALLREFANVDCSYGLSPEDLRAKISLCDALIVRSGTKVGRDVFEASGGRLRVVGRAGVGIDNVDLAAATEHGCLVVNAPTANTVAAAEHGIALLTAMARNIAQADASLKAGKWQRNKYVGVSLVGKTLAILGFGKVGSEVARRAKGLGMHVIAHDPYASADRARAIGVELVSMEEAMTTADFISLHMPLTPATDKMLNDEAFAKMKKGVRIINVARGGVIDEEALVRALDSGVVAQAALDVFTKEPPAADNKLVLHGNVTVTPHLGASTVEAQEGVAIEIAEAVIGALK

stoichiometry N [1]	Compound	Kd [2] [µM]	Kd [3] [µM]
2	DEK20^WT (truncated DEK20, residues 1-387, substrate binding domain and nucleotide-binding domain) (domain or fragment)		
	NC(=O)c1ccc[n+]([C@@H]2O[C@H](COP(=O)([O-])OP(=O)(O)OC[C@H]3O[C@@H](n4cnc5c(N)ncnc54)[C@H](O)[C@@H]3O)[C@@H](O)[C@H]2O)c1 [NAD^+]	8.11	32.4
